Results from publication PMC9090415, “Discovery of small molecule inhibitors of Plasmodium falciparum apicoplast DNA polymerase” (Journal of Enzyme Inhibition and Medicinal Chemistry, 2022).

Target: P. falciparum apicoplast DNA polymerase (Pf-apPOL) (Plasmodium falciparum, UniProt Q8ILY1)
Assay: Fluorescence-based high-throughput DNA polymerase assay (molecular beacon), primary screen and dose-response;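 as to % inhibition ApPOL 90': test concentration in µM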;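 as to % inhibition apPOL 180': test concentration in µM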
Format: biochemical
Procedure, shortened: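 Single-point screening used 10 µM compound with 20 nM polymerase, 20 nM hairpin substrate and 6 µM dNTPs for 90 min at 25 °C. Confirmatory titrations (2.5–80 µM) followed fluorescence at three times, and IC50 was derived from a fit including a cooperativity term n.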

Chain of P. falciparum apicoplast DNA polymerase (Pf-apPOL) (Q8ILY1 entry or part of it): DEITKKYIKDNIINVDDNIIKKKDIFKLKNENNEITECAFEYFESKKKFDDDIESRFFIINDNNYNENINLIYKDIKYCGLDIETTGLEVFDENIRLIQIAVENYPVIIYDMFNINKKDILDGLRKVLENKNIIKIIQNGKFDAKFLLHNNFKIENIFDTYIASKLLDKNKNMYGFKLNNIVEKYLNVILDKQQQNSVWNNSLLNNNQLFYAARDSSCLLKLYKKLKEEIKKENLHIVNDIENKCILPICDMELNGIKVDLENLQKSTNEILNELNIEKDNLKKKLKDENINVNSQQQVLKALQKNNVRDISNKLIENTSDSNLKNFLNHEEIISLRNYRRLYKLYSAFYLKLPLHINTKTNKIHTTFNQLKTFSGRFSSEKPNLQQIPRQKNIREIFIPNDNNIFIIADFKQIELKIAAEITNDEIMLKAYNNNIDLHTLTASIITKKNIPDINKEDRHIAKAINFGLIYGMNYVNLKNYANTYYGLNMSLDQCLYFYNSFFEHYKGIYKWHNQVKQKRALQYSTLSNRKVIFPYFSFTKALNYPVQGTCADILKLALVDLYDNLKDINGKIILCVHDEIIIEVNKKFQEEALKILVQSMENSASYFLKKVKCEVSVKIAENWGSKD

O=c1cc(-c2ccccc2)oc2c(O)c(O)ccc12 [Molecule 84, Oc1ccc2c(c1O)oc(cc2=O)c1ccccc1]
DNA Pol (186 hits, value of the hit list (primary screen); unit not given; 90 min, 10 µM): 55 | % inhibition Apo pol 10' (DRC-1; 10'; concentration 2.5): 14.1303% | % inhibition Apo pol 10' (DRC-1; 10'; concentration 5): 19.657% | % inhibition Apo pol 10' (DRC-1; 10'; concentration 10): 33.8432% | % inhibition Apo pol 10' (DRC-1; 10'; concentration 20): 42.9919% | % inhibition Apo pol 10' (DRC-1; 10'; concentration 40): 51.8731% | % inhibition Apo pol 10' (DRC-1; 10'; concentration 80): 57.9256% | % inhibition Apol 90' (DRC-1; 90'; concentration 2.5): 6.487% | % inhibition Apol 90' (DRC-1; 90'; concentration 5): 3.595% | % inhibition Apol 90' (DRC-1; 90'; concentration 10): 11.2996% | % inhibition Apol 90' (DRC-1; 90'; concentration 20): 16.5407% | % inhibition Apol 90' (DRC-1; 90'; concentration 40): 24.8113% | % inhibition Apol 90' (DRC-1; 90'; concentration 80): 29.7853% | % inhibition apPOL 180' (DRC-1; 180'; concentration 2.5): 1.7844% | % inhibition apPOL 180' (DRC-1; 180'; concentration 5): -2.772% | % inhibition apPOL 180' (DRC-1; 180'; concentration 10): 4.166% | % inhibition apPOL 180' (DRC-1; 180'; concentration 20): 7.699% | % inhibition apPOL 180' (DRC-1; 180'; concentration 40): 14.2771% | % inhibition apPOL 180' (DRC-1; 180'; concentration 80): 18.1576% | % inhibition Apo pol 5' (DRC-2, 5', concentration 2.5): 12% | % inhibition Apo pol 5' (DRC-2, 5', concentration 5): 18% | % inhibition Apo pol 5' (DRC-2, 5', concentration 10): 26% | % inhibition Apo pol 5' (DRC-2, 5', concentration 20): 32% | % inhibition Apo pol 5' (DRC-2, 5', concentration 40): 41% | % inhibition Apo pol 5' (DRC-2, 5', concentration 80): 42% | % inhibition Apol 40' (DRC-2, 40', concentration 2.5): 10% | % inhibition Apol 40' (DRC-2, 40', concentration 5): 13% | % inhibition Apol 40' (DRC-2, 40', concentration 10): 21% | % inhibition Apol 40' (DRC-2, 40', concentration 20): 23% | % inhibition Apol 40' (DRC-2, 40', concentration 40): 32% | % inhibition Apol 40' (DRC-2, 40', concentration 80): 36% | % inhibition ApPOL 90' (DRC-2, 90', concentration 2.5): 8% | % inhibition ApPOL 90' (DRC-2, 90', concentration 5): 10% | % inhibition ApPOL 90' (DRC-2, 90', concentration 10): 16% | % inhibition ApPOL 90' (DRC-2, 90', concentration 20): 17% | % inhibition ApPOL 90' (DRC-2, 90', concentration 40): 26% | % inhibition ApPOL 90' (DRC-2, 90', concentration 80): 32% | % inhibition apPOL 180' (DRC-2, 180', concentration 2.5): 1.74% | % inhibition apPOL 180' (DRC-2, 180', concentration 5): 3.63% | % inhibition apPOL 180' (DRC-2, 180', concentration 10): 7.41% | % inhibition apPOL 180' (DRC-2, 180', concentration 20): 6% | % inhibition apPOL 180' (DRC-2, 180', concentration 40): 16% | % inhibition apPOL 180' (DRC-2, 180', concentration 80): 23% | % inhibition Apo pol 5' (DRC-2; 5'; concentration 10): 26% | % inhibition Apo pol 5' (DRC-2; 5'; concentration 20): 32% | % inhibition Apol 40' (DRC-2; 40'; concentration 2.5): 10% | % inhibition Apol 40' (DRC-2; 40'; concentration 20): 23% | % inhibition Apol 40' (DRC-2; 40'; concentration 40): 32% | % inhibition ApPOL 90' (DRC-2; 90'; concentration 5): 10% | % inhibition ApPOL 90' (DRC-2; 90'; concentration 10): 16% | % inhibition ApPOL 90' (DRC-2; 90'; concentration 40): 26% | % inhibition ApPOL 90' (DRC-2; 90'; concentration 80): 32% | % inhibition apPOL 180' (DRC-2; 180'; concentration 40): 16% | % inhibition apPOL 180' (DRC-2; 180'; concentration 80): 23% | DNA Pol (primary screen value, 'DNA Pol' only; 90 min, 10 µM): 55

CN(C)C=C1SCc2ccccc2C1=O [Molecule 77, CN(C=C1SCc2c(C1=O)cccc2)C]
DNA Pol ('DNA Pol'; screening value, unit not given; 90 min, 10 µM): 85 | % inhibition Apo pol 10' (DRC-1; 10'; concentration 2.5): 11.5763% | % inhibition Apo pol 10' (DRC-1; 10'; concentration 5): 16.7667% | % inhibition Apo pol 10' (DRC-1; 10'; concentration 10): 31.6418% | % inhibition Apo pol 10' (DRC-1; 10'; concentration 20): 51.9221% | % inhibition Apo pol 10' (DRC-1; 10'; concentration 40): 56.5642% | % inhibition Apo pol 10' (DRC-1; 10'; concentration 80): 84.5209% | % inhibition Apol 90' (DRC-1; 90'; concentration 2.5): 2.782% | % inhibition Apol 90' (DRC-1; 90'; concentration 5): 3.396% | % inhibition Apol 90' (DRC-1; 90'; concentration 10): 10.9684% | % inhibition Apol 90' (DRC-1; 90'; concentration 20): 24.755% | % inhibition Apol 90' (DRC-1; 90'; concentration 40): 26.7268% | % inhibition Apol 90' (DRC-1; 90'; concentration 80): 62.9199% | % inhibition apPOL 180' (DRC-1; 180'; concentration 2.5): -2.727% | % inhibition apPOL 180' (DRC-1; 180'; concentration 5): -5.416% | % inhibition apPOL 180' (DRC-1; 180'; concentration 10): 0.7299% | % inhibition apPOL 180' (DRC-1; 180'; concentration 20): 8.887% | % inhibition apPOL 180' (DRC-1; 180'; concentration 40): 10.8248% | % inhibition apPOL 180' (DRC-1; 180'; concentration 80): 43.5104% | % inhibition Apo pol 5' (DRC-2, 5', concentration 2.5): 2.65% | % inhibition Apo pol 5' (DRC-2, 5', concentration 5): 5.48% | % inhibition Apo pol 5' (DRC-2, 5', concentration 10): 20% | % inhibition Apo pol 5' (DRC-2, 5', concentration 20): 33% | % inhibition Apo pol 5' (DRC-2, 5', concentration 40): 41% | % inhibition Apo pol 5' (DRC-2, 5', concentration 80): 52% | % inhibition Apol 40' (DRC-2, 40', concentration 2.5): 2% | % inhibition Apol 40' (DRC-2, 40', concentration 5): 4% | % inhibition Apol 40' (DRC-2, 40', concentration 10): 13% | % inhibition Apol 40' (DRC-2, 40', concentration 20): 26% | % inhibition Apol 40' (DRC-2, 40', concentration 40): 34% | % inhibition Apol 40' (DRC-2, 40', concentration 80): 57% | % inhibition ApPOL 90' (DRC-2, 90', concentration 2.5): 0.807% | % inhibition ApPOL 90' (DRC-2, 90', concentration 5): 1% | % inhibition ApPOL 90' (DRC-2, 90', concentration 10): 8% | % inhibition ApPOL 90' (DRC-2, 90', concentration 20): 18% | % inhibition ApPOL 90' (DRC-2, 90', concentration 40): 26% | % inhibition ApPOL 90' (DRC-2, 90', concentration 80): 54% | % inhibition apPOL 180' (DRC-2, 180', concentration 2.5): -3% | % inhibition apPOL 180' (DRC-2, 180', concentration 5): -3.45% | % inhibition apPOL 180' (DRC-2, 180', concentration 10): 0.193% | % inhibition apPOL 180' (DRC-2, 180', concentration 20): 7.49% | % inhibition apPOL 180' (DRC-2, 180', concentration 40): 14% | % inhibition apPOL 180' (DRC-2, 180', concentration 80): 45% | % inhibition Apol 40' (conc 20 (unit not given); 40'; DRC-2): 26% | % inhibition ApPOL 90' (conc 40 (unit not given); 90'; DRC-2): 26% | DNA Pol (primary screen hit value, DNA Pol (186 hits); 90 min, 10 µM): 85

Cc1ccc(C)c(CSc2nc(C3CCCCC3)c(C#N)c(=O)[nH]2)c1 [Molecule 6, N#Cc1c(=O)[nH]c(nc1C1CCCCC1)SCc1cc(C)ccc1C]
DNA Pol ('DNA Pol' of the 186 hits list (primary screen result); unit not given; 90 min, 10 µM): 98 | % inhibition Apo pol 10' (DRC-1; 10'; concentration 2.5): 19.6577% | % inhibition Apo pol 10' (DRC-1; 10'; concentration 5): 38.2184% | % inhibition Apo pol 10' (DRC-1; 10'; concentration 10): 71.2419% | % inhibition Apo pol 10' (DRC-1; 10'; concentration 20): 88.8023% | % inhibition Apo pol 10' (DRC-1; 10'; concentration 40): 92.9931% | % inhibition Apo pol 10' (DRC-1; 10'; concentration 80): 97.5171% | % inhibition Apol 90' (DRC-1; 90'; concentration 2.5): 7.563% | % inhibition Apol 90' (DRC-1; 90'; concentration 5): 29.5473% | % inhibition Apol 90' (DRC-1; 90'; concentration 10): 66.2339% | % inhibition Apol 90' (DRC-1; 90'; concentration 20): 83.4926% | % inhibition Apol 90' (DRC-1; 90'; concentration 40): 89.6774% | % inhibition Apol 90' (DRC-1; 90'; concentration 80): 97.7776% | % inhibition apPOL 180' (DRC-1; 180'; concentration 2.5): -0.2009% | % inhibition apPOL 180' (DRC-1; 180'; concentration 5): 17.3135% | % inhibition apPOL 180' (DRC-1; 180'; concentration 10): 54.7895% | % inhibition apPOL 180' (DRC-1; 180'; concentration 20): 77.2836% | % inhibition apPOL 180' (DRC-1; 180'; concentration 40): 85.5131% | % inhibition apPOL 180' (DRC-1; 180'; concentration 80): 97.5591% | % inhibition Apol 40' (DRC-2, 40', concentration 2.5 (unit not given)): 13% | % inhibition ApPOL 90' (DRC-2, 90', concentration 40 (unit not given)): 80% | % inhibition apPOL 180' (DRC-2, 180', concentration 5 (unit not given)): 10% | % inhibition apPOL 180' (DRC-2, 180', concentration 40 (unit not given)): 80% | % inhibition apPOL 180' (DRC-2, 180', concentration 80 (unit not given)): 80% | % inhibition Apo pol 5' (DRC-2; 5'; concentration 2.5): 9% | % inhibition Apo pol 5' (DRC-2; 5'; concentration 5): 13% | % inhibition Apo pol 5' (DRC-2; 5'; concentration 5 (unit not given)): 13% | % inhibition Apo pol 5' (DRC-2; 5'; concentration 20): 59% | % inhibition Apo pol 5' (DRC-2; 5'; concentration 40): 63% | % inhibition Apo pol 5' (DRC-2; 5'; concentration 80): 61% | % inhibition Apol 40' (DRC-2; 40'; concentration 2.5): 13% | % inhibition Apol 40' (DRC-2; 40'; concentration 5): 18% | % inhibition Apol 40' (DRC-2; 40'; concentration 10): 51% | % inhibition Apol 40' (DRC-2; 40'; concentration 20): 69% | % inhibition Apol 40' (DRC-2; 40'; concentration 40): 77% | % inhibition Apol 40' (DRC-2; 40'; concentration 80): 75% | % inhibition ApPOL 90' (DRC-2; 90'; concentration 2.5): 10% | % inhibition ApPOL 90' (DRC-2; 90'; concentration 2.5 (unit not given)): 10% | % inhibition ApPOL 90' (DRC-2; 90'; concentration 5): 16% | % inhibition ApPOL 90' (DRC-2; 90'; concentration 10): 50% | % inhibition ApPOL 90' (DRC-2; 90'; concentration 20): 71% | % inhibition ApPOL 90' (DRC-2; 90'; concentration 40): 80% | % inhibition ApPOL 90' (DRC-2; 90'; concentration 80): 78% | % inhibition apPOL 180' (DRC-2; 180'; concentration 2.5): 5.53% | % inhibition apPOL 180' (DRC-2; 180'; concentration 5): 10% | % inhibition apPOL 180' (DRC-2; 180'; concentration 20): 67% | % inhibition apPOL 180' (DRC-2; 180'; concentration 40): 80% | % inhibition apPOL 180' (DRC-2; 180'; concentration 80): 80% | DNA Pol (primary screen value of the library well; unit not given; 90 min, 10 µM): 98

CC(NC(=O)Cc1cc(=O)[nH]c(SCc2cccc(Cl)c2)n1)c1ccccc1 (stereo not shown) [Molecule 67]
IC50 (supplemental file 2, sheet IC50 nontoxic compounds; Pf-apPOL): 23.3 µM
